Assay [1] has as its target T1, HiBit-KRAS^G12C (Homo sapiens, UniProt P01116, G12C). The assay is described as follows: HiBit degradation assay in MiaPaCa-2 HiBit-KRas^G12C cells. In kind it is cell-based. The note with it: 24 hours; for DC50: read-out: KRas^G12C-HiBiT (MiaPaCa; 0.5% DMSO) IC50. The method, boiled down: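 MiaPaCa-2 cells with CRISPR N-terminal HiBit knock-in on one endogenous KRAS^G12C allele, treated 24 hours at 37° C with compound titrated 10 μM to 20 nM (0.1% or 0.5% DMSO). Lytic HiBit luminescence normalized to DMSO, 4-parameter fit giving DC50 and Dmax; points cytotoxic to […] cells by alamar blue excluded.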
A general note: HiBiT is a short tag that completes a luciferase, so light tracks the accessible tagged protein.

Assay [2] deals with T1, HiBit-KRAS^G12C. The experiment in a line: HiBit degradation assay in SW1573 HiBit-KRas^G12C cells. In kind it is cell-based. Also on record: expressed in transfected cells; host or cells: SW1573 (clone E6), modified pcDNA3.1 vector, TK promoter. The note with it: 24 hours. The method, boiled down: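 SW1573 cells stably expressing N-terminally HiBit-tagged KRAS G12C, under the TK promoter, were treated 24 h at 37 °C with 10 μM to 20 nM compound in 0.1% or 0.5% DMSO. Residual HiBit luminescence normalised to DMSO and fitted with a 4-parameter model for DC50 and Dmax. Points with ≥50% viability loss (alamar blue) excluded.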

The mark [3] stands for this setting: MIA PaCa-2, read-out: KRas^G12C-HiBiT (MiaPaCa; 0.1% DMSO) DMax, MiaPaCa-2 HiBit-KRas^G12C cells, 0.1% DMSO, maximum degradation.
[4] abbreviates: SW1573, read-out: KRas^G12C-HiBit (SW1573; 0.1% DMSO) Dmax**, SW1573 HiBit-KRas^G12C, 0.1% DMSO.
[5] abbreviates: SW1573 HiBit-KRas^G12C, 0.1% DMSO, read-out: KRas^G12C-HIBit (SW1573; 0.1% DMSO) DC50*.
Where [6] appears, read: MIA PaCa-2, MiaPaCa-2 HiBit-KRas^G12C cells, 0.5% DMSO, maximum degradation, read-out: KRas^G12C-HiBiT (MiaPaCa; 0.5% DMSO) DMax.
The mark [7] stands for this setting: MiaPaCa-2 HiBit-KRas^G12C cells, 0.5% DMSO.
Where [8] appears, read: SW1573, SW1573 HiBit-KRas^G12C, 0.5% DMSO, read-out: KRas^G12C-HiBiT (SW1573; 0.5% DMSO) Dmax**.
The mark [9] stands for this setting: read-out: KRas^G12C-HiBiT (SW1573; 0.5% DMSO) IC50***, SW1573 HiBit-KRas^G12C, 0.5% DMSO.
Where [10] appears, read: MiaPaCa-2 HiBit-KRas^G12C cells, 0.5% DMSO, maximum degradation.
The mark [11] stands for this setting: SW1573 HiBit-KRas^G12C, 0.5% DMSO.

Where only a bound is given, the exact number is not on record here.

T1 sequence (P01116 1-186 isoform P01116-2 G12C limits assumed): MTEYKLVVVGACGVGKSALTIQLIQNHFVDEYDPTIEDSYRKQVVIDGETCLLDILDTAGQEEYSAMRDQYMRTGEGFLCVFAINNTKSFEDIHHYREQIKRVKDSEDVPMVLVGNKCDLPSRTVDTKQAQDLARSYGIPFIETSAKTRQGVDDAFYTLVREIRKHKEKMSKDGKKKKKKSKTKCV

Turning to `C=CC(=O)N1CCN(c2nc(O[C@H](C)CN3CCC(COCC(=O)N[C@H](C(=O)N4C[C@H](O)C[C@H]4C(=O)N[C@@H](C)c4ccc(-c5scnc5C)cc4)C(C)(C)C)CC3)nc3c(F)c(-c4cc(O)cc5cccc(C)c45)c(Cl)cc23)CC1` [Compound 11, (2S,4R)-1-[(2S)-2-[2-({1-[(2R)-2-{[6-chloro-8-fluoro-7-(3-hydroxy-8-methylnaphthalen-1-yl)-4-[4-(prop-2-enoyl)piperazin-1-yl]quinazolin-2-yl]oxy}propyl]piperidin-4-yl}methoxy)acetamido]-3,3-dimethylbutanoyl]-4-hydroxy-N-[(1S)-1-[4-(4-methyl-1,3-thiazol-5-yl)phenyl]ethyl]pyrrolidine-2-carboxamide], the Dmax in assay [1] (setting [3]) and in assay [2] (setting [4]) was 35 to 70% each time. The DC50 in assay [2] (setting [5]) fell in the range of 100 to 1000 nM.

Turning to `C=CC(=O)N1CCN(c2nc(OCCN3CCC(COc4cc([C@H](C(=O)N5C[C@H](O)C[C@H]5C(=O)N[C@@H](C)c5ccc(-c6ccnn6C)cc5)C(C)C)on4)CC3)nc3c(F)c(-c4cc(O)cc5ccccc45)c(Cl)cc23)C[C@@H]1CC#N` (atropisomer, axis not shown) [Compound 138, (2S,4R)-1-[(2R)-2-[3-({1-[2-({6-chloro-4-[(3S)-3-(cyanomethyl)-4-(prop-2-enoyl)piperazin-1-yl]-8-fluoro-7-(3-hydroxynaphthalen-1-yl)quinazolin-2-yl}oxy)ethyl]-piperidin-4-yl}methoxy)-1,2-oxazol-5-yl]-3-methylbutanoyl]-4-hydroxy-N-[(1S)-1-[4-(1-methyl-1H-pyrazol-5-yl)phenyl]ethyl]pyrrolidine-2-carboxamide], the Dmax in assay [1] (setting [6]) and in assay [2] (setting [8]) was greater than 70% each time. Also, the figures for the DC50 in assay [1] (setting [7]) and in assay [2] (setting [9]) were 100 to 1000 nM and less than 100 nM, respectively.

With `C=CC(=O)N1CCN(c2nc(OCCN3CCC(COCC(=O)N[C@H](C(=O)N4C[C@H](O)C[C@H]4C(=O)N[C@@H](C)c4ccc(-c5scnc5C)cc4)C(C)(C)C)CC3)nc3c(F)c(-c4cc(O)cc5ccccc45)c(Cl)cc23)CC1` (atropisomer, axis not shown) [Compound 9, (2S,4R)-1-[(2S)-2-(2-{[1-(2-{[6-chloro-8-fluoro-7-(3-hydroxynaphthalen-1-yl)-4-[4-(prop-2-enoyl)piperazin-1-yl]quinazolin-2-yl]oxy}ethyl)piperidin-4-yl]methoxy}acetamido)-3,3-dimethylbutanoyl]-4-hydroxy-N-[(1S)-1-[4-(4-methyl-1,3-thiazol-5-yl)phenyl]ethyl]pyrrolidine-2-carboxamide], the “KRas^G12C-HiBiT (MiaPaCa; 0.1% DMSO) DMax” value in assay [1] (MiaPaCa-2 HiBit-KRas^G12C cells, 0.1% DMSO, maximum degradation) is listed as “A (A ≥ 70)”. The “KRas^G12C-HiBiT (MiaPaCa; 0.5% DMSO) DMax” value in assay [1] (setting [10]) is given as “A (A ≥ 70)”. The “KRas^G12C-HiBit (SW1573; 0.1% DMSO) Dmax**” value in assay [2] (SW1573 HiBit-KRas^G12C, 0.1% DMSO) is on record as “A (A ≥ 70)”. For the same compound, the DC50 in assay [2] (setting [5]) lay within 100 to 1000 nM.

For `C=CC(=O)N1CCN(c2nc(OCCN3CCC(COc4cc([C@H](C(=O)N5C[C@H](O)C[C@H]5C(=O)N[C@@H](C)c5ccc(-c6scnc6C)cc5)C(C)C)on4)CC3)nc3c(F)c(-c4cc(O)cc5ccccc45)c(Cl)cc23)CC1` (atropisomer, axis not shown) [Compound 146, (2S,4R)-1-[(2R)-2-(3-{[1-(2-{[6-chloro-8-fluoro-7-(3-hydroxynaphthalen-1-yl)-4-[4-(prop-2-enoyl)piperazin-1-yl]quinazolin-2-yl]oxy}ethyl)piperidin-4-yl]methoxy}-1,2-oxazol-5-yl)-3-methylbutanoyl]-4-hydroxy-N-[(1S)-1-[4-(4-methyl-1,3-thiazol-5-yl)phenyl]ethyl]pyrrolidine-2-carboxamide], in assay [1] (setting [6]), the Dmax lay within 35 to 70%. Moreover, the DC50 in assay [1] (setting [7]) and in assay [2] (setting [9]) was greater than 1000 nM in each case.

For the compound `C=CC(=O)N1CCN(c2nc(OCCN3CCC(COc4cc([C@H](C(=O)N5C[C@H](O)C[C@H]5C(=O)N[C@@H](C)c5ccc(-c6scnc6C)cc5)C(C)C)on4)CC3)nc3c(F)c(-c4cc(O)cc5ccccc45)c(Cl)cc23)C[C@@H]1CC#N` (atropisomer, axis not shown) [Compound 173, (2S,4R)-1-[(2R)-2-[3-({1-[2-({6-chloro-4-[(3S)-3-(cyanomethyl)-4-(prop-2-enoyl)piperazin-1-yl]-8-fluoro-7-(3-hydroxynaphthalen-1-yl)quinazolin-2-yl}oxy)ethyl]piperidin-4-yl}methoxy)-1,2-oxazol-5-yl]-3-methylbutanoyl]-4-hydroxy-N-[(1S)-1-[4-(4-methyl-1,3-thiazol-5-yl)phenyl]ethyl]pyrrolidine-2-carboxamide], the “KRas^G12C-HiBiT (MiaPaCa; 0.5% DMSO) DMax” value in assay [1] (setting [10]) was “A (A ≥ 70)”. In addition, the DC50 in assay [1] (setting [7]) and in assay [2] (setting [9]) was less than 100 nM each time. The “KRas^G12C-HiBiT (SW1573; 0.5% DMSO) Dmax**” value in assay [2] (setting [11]) was “A (A ≥ 70)”.

Take `C=C(F)C(=O)N1CCN(c2nc(OCCN3CCC(COc4cc([C@H](C(=O)N5C[C@H](O)C[C@H]5C(=O)N[C@@H](C)c5ccc(-c6scnc6C)cc5)C(C)C)on4)CC3)nc3c(F)c(-c4cc(O)cc5ccccc45)c(Cl)cc23)C[C@@H]1CC#N` [Compound 168, (2S,4R)-1-[(2R)-2-[3-({1-[2-({6-chloro-4-[(3S)-3-(cyanomethyl)-4-(2-fluoroprop-2-enoyl)piperazin-1-yl]-8-fluoro-7-(3-hydroxynaphthalen-1-yl)quinazolin-2-yl}oxy)ethyl]piperidin-4-yl}methoxy)-1,2-oxazol-5-yl]-3-methylbutanoyl]-4-hydroxy-N-[(1S)-1-[4-(4-methyl-1,3-thiazol-5-yl)phenyl]ethyl]pyrrolidine-2-carboxamide]: the “KRas^G12C-HiBiT (MiaPaCa; 0.5% DMSO) DMax” value in assay [1] (setting [10]) is “A (A ≥ 70)”. Besides, the DC50 in assay [1] (setting [7]) and in assay [2] (setting [9]) was 100 to 1000 nM each time. Also, the “KRas^G12C-HiBiT (SW1573; 0.5% DMSO) Dmax**” value in assay [2] (setting [11]) is “A (A ≥ 70)”.

As to `C=CC(=O)N1CCN(c2nc(O[C@H](C)CN3CCC(C4CCN(CC(=O)N[C@H](C(=O)N5C[C@H](O)C[C@H]5C(=O)N[C@@H](C)c5ccc(-c6scnc6C)cc5)C(C)(C)C)CC4)CC3)nc3c(F)c(-c4cc(O)cc5ccccc45)c(Cl)cc23)CC1` [Compound 50, (2S,4R)-1-[(2S)-2-(2-{1′-[(2R)-2-{[6-chloro-8-fluoro-7-(3-hydroxynaphthalen-1-yl)-4-[4-(prop-2-enoyl)piperazin-1-yl]quinazolin-2-yl]oxy}propyl]-[4,4′-bipiperidin]-1-yl}acetamido)-3,3-dimethylbutanoyl]-4-hydroxy-N-[(1S)-1-[4-(4-methyl-1,3-thiazol-5-yl)phenyl]ethyl]pyrrolidine-2-carboxamide], the Dmax in assay [1] (setting [3]) and in assay [2] (setting [4]) was 35 to 70% throughout. In addition, the DC50 in assay [2] (setting [5]) was greater than 1000 nM.

Take `C=CC(=O)N1CCN(c2nc(OCCN3CCC(COCC(=O)N[C@H](C(=O)N4C[C@H](O)C[C@H]4C(=O)N[C@@H](C)c4ccc(-c5scnc5C)cc4)C(C)(C)C)CC3)nc3c(F)c(-c4cccc5cccc(C)c45)c(Cl)cc23)C[C@@H]1CC#N` [Compound 135, (2S,4R)-1-[(2S)-2-[2-({1-[2-({6-chloro-4-[(3S)-3-(cyanomethyl)-4-(prop-2-enoyl)piperazin-1-yl]-8-fluoro-7-(8-methylnaphthalen-1-yl)quinazolin-2-yl}oxy)ethyl]-piperidin-4-yl}methoxy)acetamido]-3,3-dimethylbutanoyl]-4-hydroxy-N-[(1S)-1-[4-(4-methyl-1,3-thiazol-5-yl)phenyl]ethyl]pyrrolidine-2-carboxamide]: the Dmax in assay [1] (setting [6]) and in assay [2] (setting [8]) was 35 to 70% each time. Further, the DC50 in assay [1] (setting [7]) and in assay [2] (setting [9]) was 100 to 1000 nM throughout.

The values above are taken from patent US20220370416A1, “COMPOUNDS AND METHODS FOR TARGETED DEGRADATION OF KRAS” (Arvinas Operations, Inc., priority 2020, published 2022).
